Source: article PMC6607443, “Systematic identification of recognition motifs for the hub protein LC8” (Life Science Alliance, 2019)
Where no end group is shown, it is not given here.

Biological target: LC8 (UniProt P63167)
Test: not given
Conditions: rotavirus A VP4 residues 644–651; ref Martínez-Moreno et al, 2003; cited from earlier work
Excerpt: We scanned Homo sapiens and viral proteomes for potential LC8-binding sequences based upon: (1) their propensity for disorder, (2) their sequence conservation across related species, and (3) the sequence’s similarity to known motifs. This final parameter used a PSSM based on the relative enrichment or depletion of each residue in a potential sequence, weighted by amino acid frequency. Enrichment and depletion PSSMs were populated using sequences that interact with LC8, verified either by mutagenesis or in vitro assays. ITC experiments were performed on 19 synthetic peptides with high-scoring s ...

Sequence of LC8 (P63167 whole entry): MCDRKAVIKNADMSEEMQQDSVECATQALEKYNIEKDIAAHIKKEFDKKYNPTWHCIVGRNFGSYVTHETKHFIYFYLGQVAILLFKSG

| Sequence | binding to LC8 (in words) |
| --- | --- |
| IDMSTQIG [rotavirus A VP4 residue position 644–651, site predicted and tested in a previous study] | did not bind LC8 |

Biological target: LC8 (UniProt P63167)
Test: ITC of synthetic peptides binding to LC8
Conditions: Fig 3B; ITC, 25°C, 50 mM NaCl, 50 mM NaPO4, 1 mM NaN3, pH 7.5; single-site model; average of two to three independent experiments; read-out: Kd

| Sequence | Kd [µM] |
| --- | --- |
| ISRMTQTP [RAVL, synthesized to validate previous data] | 8 |
| RNSQTQTD [VP35(EBV), synthesized to validate previous data] | 0.8 |
| VAQGTQTP [BSN^III, synthesized to validate previous data] | 5.3 |

Same assay, conditions: ITC, 25°C, pH 7.5; single-site model; read-out: Kd

| Sequence | Kd [µM] |
| --- | --- |
| KDGDTQTD [HTATSF1, peptide from HIV Tat-specific factor 1, UniProt O43719, predicted by LC8Pred] | 10 |

Same assay, conditions: ITC, 25°C, pH 7.5; strong = Kd fit, weak = heat but not fit (>25 μM)

| Sequence | binding to LC8 via ITC (in words) |
| --- | --- |
| KDGDTQTD [HTATSF1, peptide from HIV Tat-specific factor 1, UniProt O43719, predicted by LC8Pred] | “strong” binder |
| KTLTFSGSSQTVTP [QSER1, synthetic peptide from QSER1, UniProt Q2KHR3] | nonbinders |
| RTSETNTP [NIN, peptide from ninein, UniProt Q8N4C6, predicted by LC8Pred] | bound to LC8 |
| SKTQQTFGSQTECT [TOGARAM1, synthetic peptide from TOGARAM1, UniProt Q9Y4F4] | weak binders |
| SSTEVQVE [OTOF, peptide from otoferlin, UniProt Q9HC10, predicted by LC8Pred] | bound to LC8 |
| STQTPSPAPASDMP [BSN-shift] | failed to demonstrate even weak binding to LC8 |

Same assay, conditions: Table 1, peptides synthesized from phage display hits; ITC, 25°C, 50 mM sodium phosphate, 50 mM NaCl, 1 mM sodium azide, 5 mM β-mercaptoethanol, pH 7.5; 500 μM peptide into 25 μM LC8

| Sequence | Binder? |
| --- | --- |
| AASLIQKMLQTDPTAR [PLK1, synthetic peptide from PLK1, UniProt P53350] | N |
| AKESCNMETQTSST [OFD1, synthetic peptide from OFD1, UniProt O75665] | Y |
| CLKETLQITQTEVQ [NFYC, synthetic peptide from NFYC, UniProt Q13952] | N |
| DDHSGNAQVTQTKFD [DDX1, synthetic peptide from DDX1, UniProt Q92499] | N |
| DDNHWTRSTQTTRE [MUC4] | Y |
| DDPMYSSQTQTYGD [KCNQ2, synthetic peptide from KCNQ2, UniProt O43526] | N |
| DDSGGNATTQTTSD [ROR1, synthetic peptide from ROR1, UniProt Q01973] | Weak^a (Weak binders are those with affinities >25 μM) |
| DERLMCTGSQTFDD [EFL1, synthetic peptide from EFL1, UniProt Q7Z2Z2] | N |
| EGYRGTANTTTAAYLA [MSTL1, synthetic peptide from MSTL1, UniProt Q2TV78] | N |
| ESGDGNTGTQTNGL [POU2F1, synthetic peptide from POU2F1, UniProt P14859] | N |
| GQGAALTTATQTTHLE [GP1BA, synthetic peptide from GP1BA, UniProt P07359] | Weak^a (Weak binders are those with affinities >25 μM) |
| ITSYNSQGTQLTVE [KY, synthetic peptide from KY, UniProt Q8NBH2] | N |
| KHSGRQLTLQHHMG [CUL3, synthetic peptide from CUL3, UniProt Q13618] | N |
| KITFTKPSTQTTNT [EMSY, synthetic peptide from EMSY, UniProt Q7Z589] | N |
| KTLTFSGSSQTVTP [QSER1, synthetic peptide from QSER1, UniProt Q2KHR3] | N |
| LPRKVDTAAQTNSR [IRS1, synthetic peptide from IRS1, UniProt P35568] | N |
| LQETLTTSSQANLS [PPP2R3A, synthetic peptide from PPP2R3A, UniProt Q06190] | N |

| Sequence | Binder? |
| --- | --- |
| NQSFLRTPIQRTPH [SAV1, synthetic peptide from SAV1, UniProt Q9H4B6] | N |
| PLQATISKSQTNPV [UBN2, synthetic peptide from UBN2, UniProt Q6ZU65] | N |
| RAAALPEETRSSRR [ZNF469, synthetic peptide from ZNF469, UniProt Q96JG9] | N |
| RGDGSDVSSQTPQT [ANKIB1, synthetic peptide from ANKIB1, UniProt Q9P2G1] | N |
| RSFVLPVESTQDVSSQ [CRYBG1, synthetic peptide from CRYBG1, UniProt Q9Y4K1] | N |
| SFRHPGYSTQTHVN [KLK7, synthetic peptide from KLK7, UniProt P49862] | N |
| SKTQQTFGSQTECT [TOGARAM1, synthetic peptide from TOGARAM1, UniProt Q9Y4F4] | Weak^a (Weak binders are those with affinities >25 μM) |
| SMATPSSSTQTSGT [MUC5B-3, synthetic peptide from MUC5B, UniProt Q9HC84, residues 2,673-2,686] | N |
| SPSPTGLPTQTPGF [ARAP3, synthetic peptide from ARAP3, UniProt Q8WWN8] | Weak^a (Weak binders are those with affinities >25 μM) |
| SSRSAFSPLQPNAS [DMRTA2, synthetic peptide from DMRTA2, UniProt Q96SC8] | N |
| STQTPSPAPASDMP [BSN-shift] | N |
| TEAKDQCSTQTDFN [EPAS1, synthetic peptide from EPAS1, UniProt Q99814] | N |
| TLQQPLELTASQLPAG [OTOG, synthetic peptide from OTOG, UniProt Q6ZRI0] | N |
| TLVSTASGTQTVFP [SH3RF2, synthetic peptide from SH3RF2, UniProt Q8TEC5] | N |
| TPTPTPTGTQTPTT [MUC2, synthetic peptide from MUC2, UniProt Q02817] | N |
| TQDDYFKDKRVHHFRRS [DAZL] | N |
| TTLPVLTSTATKST [MUC5B-1, synthetic peptide from MUC5B, UniProt Q9HC84, residues 3,049-3,062] | N |

Same assay, conditions: Table 2, peptides synthesized from favorable sequence comparisons (PSSM); ITC, 25°C, pH 7.5; 500 μM peptide into 25 μM LC8

| Sequence | Binder? |
| --- | --- |
| AQPKQKLDTSIQTEYP [MT/HEL (TMV), synthetic peptide from MT/HEL (TMV), UniProt P03586] | N |
| DFTPAFADFGRQTPGG [EIF4G3, synthetic peptide from EIF4G3, UniProt O43432] | N |
| KPFMLDEEGDTQTEET [EIF2S2, synthetic peptide from EIF2S2, UniProt P20042] | N |
| KSVAENGDTDTQTSMF [ZZZ3, synthetic peptide from ZZZ3, UniProt Q8IYH5] | N |
| MDDIFTQCREGN [ILK, synthetic peptide from ILK, UniProt Q13418] | N |
| NKVFAKLHHNTQTFQA [CCL25, synthetic peptide from CCL25, UniProt O15444] | N |
| TQDDYFKDKRVHHFRRS [DAZL] | N |
| YELMASLDQPTQTVVM [EIF3C, synthetic peptide from EIF3C, UniProt Q99613] | N |
| YGPDGEETETQTCPP [PRSS36, synthetic peptide from PRSS36, UniProt Q5K4E3] | N |
| YGQIAPENGTQTPSP [ITGAX, synthetic peptide from ITGAX, UniProt P20702] | N |
| YHHRILEAKSIQTSPT [FMN2, synthetic peptide from FMN2, UniProt Q9NZ56] | N |
| YKIEIPTQCPSCGSK [DNLJ2 (phage T5), synthetic peptide from DNLJ2 (phage T5), UniProt Q5DMI6] | N |

Same assay, conditions: pH 7.5

| Sequence | Kd [µM] |
| --- | --- |
| PRATAEFSTQTPSP [BSN^II] | 3.8 |
